How the values were obtained:
[1] = system: HOP-92; assay: NCI 60-cell line one-dose antiproliferative screen (SRB); type: cell-based; details: Homo sapiens, read-out: growth inhibition % (GI%)
Procedure: (§1) Anticancer activity screening of the newly synthesised compounds was measured in vitro utilising 60 different human tumour cell lines provided by US National Cancer Institute according to previously reported standard procedure[41–43] as follows: Cells are inoculated into 96-well microtiter plates in 100 ml. After cell inoculation, the microtiter plates are incubated at 37 °C, 5% CO2, 95% air, and 100% relative humidity for 24 h prior to addition of experimental compounds. After 24 h, two plates of each cell line are fixed in situ with TCA, to represent a measurement of the cell population for each cell line at the time of compound addition (Tz). Experimental compounds are solubilised in dimethyl sulfoxide at 400-fold the desired final maximum test concentration and stored frozen prior to use. At the time of compound addition, an aliquot of frozen concentrate is thawed and diluted to twice the desired final maximum test concentration with a complete medium containing […] gentamicin. Aliquots of […] of the compounds dilutions are added to the appropriate microtiter wells already containing 100 ml of medium, resulting in the required final compound concentration. Following compound addition, the plates are incubated for an additional 48 h at 37 °C, 5% CO2, 95% air, and 100% relative humidity. For adherent cells, the assay is terminated by the addition of cold trichloroacetic acid (TCA). Cells are fixed in situ by the gentle addition of 50 ml of cold 50% (w/v) TCA (final concentration, 10% TCA) and incubated for […] at 4 °C. The supernatant is discarded, and the plates are washed five times with tap water and air-dried. Sulforhodamine B (SRB) solution (100 ml) at 0.4% (w/v) in 1% acetic acid is added to each well, and plates are incubated for 10 min at room temperature. After staining, the unbound dye is removed by washing five times with 1% acetic acid and the plates are air-dried. The bound stain is subsequently solubilised with a 10 mM trizma base, and the absorbance is read on an automated plate reader at a wavelength of 515 nm. For suspension cells, the methodology is the same except that the assay is terminated by fixing settled cells at the bottom of the wells by gently adding 50 ml of 80% TCA (final concentration, 16% TCA). Using the absorbance measurements [time zero, (Tz), control growth, (C), and test growth in the presence of compound (Ti)], the percentage growth is calculated for each compound. The One-dose data are reported as a mean graph of the percent growth of treated cells. The reported number is growth relative to the no-compound control, and relative to the time zero number of cells. This allows the detection of both growth inhibition and lethality.
(§2) Fifteen newly synthesised compounds were tested for their in vitro antiproliferative activity by the National Cancer Institute (NCI), Maryland, USA[50], under the Developmental Therapeutic Program (DTP)[41]^,[43]^,[51]^,[52]. The tested compounds were evaluated at a concentration of 10 µM on a panel of 60 tumour cell lines representing leukaemia and non-small cell lung, colon, CNS, melanoma, ovarian, renal, prostate, and breast cancers. The antiproliferative activity was presented by the NCI as percent growth of the treated cells and is presented in Table 1 as growth inhibition percentage (GI%) achieved by the tested compounds.

[2] = system: U251; assay: as above; type: cell-based; details: Homo sapiens, U-251, read-out: growth inhibition % (GI%)
Procedure: as §1, §2

[3] = system: NCI-H226; assay: as above; type: cell-based; details: Homo sapiens, read-out: growth inhibition % (GI%)
Procedure: as §1, §2

[4] = system: CAKI-1; assay: as above; type: cell-based; details: Homo sapiens, read-out: growth inhibition % (GI%)
Procedure: as §1, §2

[5] = system: MDA-MB-231/ATCC; assay: as above; type: cell-based; details: Homo sapiens, read-out: growth inhibition % (GI%)
Procedure: as §1, §2

[6] = system: NCI-H522; assay: as above; type: cell-based; details: Homo sapiens, read-out: growth inhibition % (GI%)
Procedure: as §1, §2

[7] = system: PC-3; assay: as above; type: cell-based; details: Homo sapiens, read-out: growth inhibition % (GI%)
Procedure: as §1, §2

[8] = system: HOP-62; assay: as above; type: cell-based; details: Homo sapiens, read-out: growth inhibition % (GI%)
Procedure: as §1, §2

[9] = system: OVCAR-5; assay: as above; type: cell-based; details: Homo sapiens, read-out: growth inhibition % (GI%)
Procedure: as §1, §2

[10] = system: SNB-75; assay: as above; type: cell-based; details: Homo sapiens, read-out: growth inhibition % (GI%)
Procedure: as §1, §2

[11] = system: MDA-MB-468; assay: as above; type: cell-based; details: Homo sapiens, read-out: growth inhibition % (GI%)
Procedure: as §1, §2

[12] = system: HCC-2998; assay: as above; type: cell-based; details: Homo sapiens, read-out: growth inhibition % (GI%)
Procedure: as §1, §2

[13] = system: SF-295; assay: as above; type: cell-based; details: Homo sapiens, read-out: growth inhibition % (GI%)
Procedure: as §1, §2

[14] = system: SN 12 C; assay: as above; type: cell-based; details: Homo sapiens, SN12C, read-out: growth inhibition % (GI%)
Procedure: as §1, §2

[15] = system: HCT-15; assay: as above; type: cell-based; details: Homo sapiens, read-out: growth inhibition % (GI%)
Procedure: as §1, §2

[16] = system: EKVX; assay: as above; type: cell-based; details: Homo sapiens, read-out: growth inhibition % (GI%)
Procedure: as §1, §2

[17] = system: SW-620; assay: as above; type: cell-based; details: Homo sapiens, read-out: growth inhibition % (GI%)
Procedure: as §1, §2

[18] = system: UACC-257; assay: as above; type: cell-based; details: Homo sapiens, read-out: growth inhibition % (GI%)
Procedure: as §1, §2

[19] = system: IGROV1; assay: as above; type: cell-based; details: Homo sapiens, IGROV-1, read-out: growth inhibition % (GI%)
Procedure: as §1, §2

[20] = system: SK-MEL-5; assay: as above; type: cell-based; details: Homo sapiens, read-out: growth inhibition % (GI%)
Procedure: as §1, §2

[21] = system: OVCAR-8; assay: as above; type: cell-based; details: Homo sapiens, read-out: growth inhibition % (GI%)
Procedure: as §1, §2

[22] = system: UO-31; assay: as above; type: cell-based; details: Homo sapiens, read-out: growth inhibition % (GI%)
Procedure: as §1, §2

[23] = system: NCI-H23; assay: as above; type: cell-based; details: Homo sapiens, read-out: growth inhibition % (GI%)
Procedure: as §1, §2

[24] = system: MDA-MB-435; assay: as above; type: cell-based; details: Homo sapiens, read-out: growth inhibition % (GI%)
Procedure: as §1, §2

[25] = system: SF-268; assay: as above; type: cell-based; details: Homo sapiens, read-out: growth inhibition % (GI%)
Procedure: as §1, §2

[26] = system: SF-539; assay: as above; type: cell-based; details: Homo sapiens, read-out: growth inhibition % (GI%)
Procedure: as §1, §2

[27] = system: ACHN; assay: as above; type: cell-based; details: Homo sapiens, read-out: growth inhibition % (GI%)
Procedure: as §1, §2

[28] = system: UACC-62; assay: as above; type: cell-based; details: Homo sapiens, read-out: growth inhibition % (GI%)
Procedure: as §1, §2

[29] = system: MCF7; assay: as above; type: cell-based; details: Homo sapiens, read-out: growth inhibition % (GI%)
Procedure: as §1, §2

[30] = system: LOX IMVI; assay: as above; type: cell-based; details: Homo sapiens, read-out: growth inhibition % (GI%)
Procedure: as §1, §2

In the case of `Cc1ccc(C(=O)c2ccc(CC(=O)NN=C3C(=O)Nc4ccccc43)n2C)cc1` [Compound 6a, 2–(1-Methyl-5–(4-methylbenzoyl)-1H-pyrrol-2-yl)-N′-(2-oxoindolin-3-ylidene) acetohydrazide], the inhibition at 10 µM [1] is reported as 11.1%, the inhibition at 10 µM [2] is reported as less than 10% and the inhibition at 10 µM [3] is reported as less than 10%. The inhibition at 10 µM [4] was 12.3%, the inhibition at 10 µM [5] was 11.4% and the inhibition at 10 µM [6] was less than 10%. For the same compound, the inhibition at 10 µM [7] was less than 10%, the inhibition at 10 µM [8] was less than 10% and the inhibition at 10 µM [9] was less than 10%. For the same compound, the inhibition at 10 µM [10] was 29.6%, the inhibition at 10 µM [11] was 10.5% and the inhibition at 10 µM [12] was less than 10%. For the same compound, the inhibition at 10 µM [13] was less than 10%, the inhibition at 10 µM [14] was less than 10% and the inhibition at 10 µM [15] was less than 10%. The inhibition at 10 µM [16] was less than 10%, the inhibition at 10 µM [17] was less than 10% and the inhibition at 10 µM [18] was less than 10%. It also gave an inhibition at 10 µM [19] of less than 10%, an inhibition at 10 µM [20] of less than 10% and an inhibition at 10 µM [21] of less than 10%. For the same compound, the inhibition at 10 µM [22] was 25.7%, the inhibition at 10 µM [23] was less than 10% and the inhibition at 10 µM [24] was less than 10%. It also gave an inhibition at 10 µM [25] of less than 10%, an inhibition at 10 µM [26] of less than 10% and an inhibition at 10 µM [27] of less than 10%. For the same compound, the inhibition at 10 µM [28] was less than 10%, the inhibition at 10 µM [29] was less than 10% and the inhibition at 10 µM [30] was less than 10%. For the same compound, the melting point was 193 to 195 °C.
